# Like-named read-outs stand apart in the source and are kept apart here. Marks after values point to notes of the source that are not given here.
# Columns and labels:
# [1] = set-up: method as in PMID 23135321; details: rats; cited from earlier work
# [2] = Plasma free fraction by ultrafiltration, human; format: in vitro ADME; details: humans, n = 3
# Experimental: (§1) The plasma free fraction (fp) of ^11C-LY2428703 was measured by ultrafiltration through membrane filters (Centrifree; Millipore, Billerica, MA, USA) as previously described. Briefly, about 740 kBq of ^11C-LY2428703 (approximately 5 μL) was added to 650 μL of plasma. The mixture was incubated at room temperature for 10 min and then processed as described previously. When radioactivities for the filter components were high, they were allowed to decay until they were within the optimal range of the γ-counter. Determining the free fraction during preblocking was done by drawing blood samples after the preblocking treatments were initiated but immediately before administering the radioligand.
# PET images were acquired using the GE Advance scanner (GE Healthcare, Milwaukee, WI, USA) for 120 min. An 8-min ^68Ge transmission scan was obtained before the injection of the radiotracer for attenuation correction. The mean injected activity was 328 ± 12 MBq. The specific activity at the time of injection was 87.2 ± 34.7 GBq/μmol, which corresponded to 5.5 ± 2.3 nmol (0.082 ± 0.037 nmol/kg) of carrier. Blood samples (1 mL each) were drawn from the radial artery at 15-s intervals until 150 s, followed by 3-mL samples at 3, 4, 6, 8, 10, 15, 20, 30, 40, and 50 min, and 4.5 mL at 60, 75, 90, and 120 min. The unchanged parent fraction in plasma and fP of ^11C-LY2428703 were determined as described above.
# [3] = Brain exposure comparison of five radioligands; format: in vivo, human; details: in vivo
# Experimental: Another complicating factor is low delivery to brain (i.e., low drug exposure), which may have cause low brain uptake. We compared five different radioligands from previous studies with regard to exposure to brain (Table 3) and measured the area under the curve of plasma concentration vs. time from 0 to 20 min. […] The effective exposure was thus named because only the free concentration of drug can cross the blood–brain barrier. ^11C-LY2428703 had the highest exposure value among the tracers tested. This high exposure was due to the slow wash-out of the tracer from the vascular compartment and to negligible metabolism in plasma, that is, parent radioligand represented 99% of plasma radioactivity even at the end of the 2-h scanning session.
# [4] = Whole-body biodistribution and radiation dosimetry, monkey; format: in vivo, rhesus monkeys; details: for radiation-absorbed dose: monkey data extrapolated to 70-kg adult male
# Experimental: Two male rhesus monkeys (14.1 and 19.9 kg) were scanned after intravenous injection of 318 and 274 MBq of ^11C-LY2428703, respectively. Dynamic two-dimensional scans were acquired on the GE Advance tomograph (GE Medical Systems, Milwaukee, WI, USA) in five bed positions of the body (head to upper thigh), with frames of increasing duration (15 s to 4 min) for a total scan time of up to 115 min.
# Images were analyzed by placing regions of interest on the dynamic tomographic images. Regions were drawn in identifiable source organs: brain, heart, lungs, liver, spleen, gallbladder, kidneys, lumbar vertebrae, small intestine, testes, and urinary bladder. […] The mean recovery of activity in the body above the thigh measured by PET was 85.6% of the injected activity measured by a dose calibrator. This recovered total activity in the body was used as the new injected activity for each scan.
# At each time point, the activity measured within the organs was converted into the fraction of the injected dose by dividing the organ activities by the recovered injected activity. The area under the curve (AUC) of each organ was calculated by the trapezoidal method until acquisition ended. The area under the curve after the acquisition of the last image (i.e., to infinity) was calculated by assuming that the decline in radioactivity after this time point occurred only via physical decay, without any further biological clearance.
# Residence times from the monkeys were converted into corresponding human values by multiplying with a factor to scale organ and body weights: (bm/om) × (oh/bh), where bm and bh are the body weights of monkey and human, respectively, and om and oh are the organ weights of monkey and human, respectively.
# Radiation absorbed doses were calculated from the residence times for each source organ. We used the model for a 70-kg adult male in the OLINDA/EXM computer program.
# P-gp = test system: P-gp; set-up: method as in PMID 23135321; details: previous in vitro analyses; cited from earlier work
# [5] = Plasma free fraction by ultrafiltration, monkey; format: in vitro ADME, rhesus monkeys
# Experimental: as §1
# To assess the effects of blocking agents on the fP of ^11C-LY2428703, fP was measured in three monkeys both at baseline and after blockade. The first monkey was blocked with cold LY2428703 and fP was measured 2.5 min after blocker injection (which corresponds to the maximal concentration in plasma of LY2428703), and again at 40 min. The other two monkeys were blocked with DCPQ and elacridar, respectively.
# [6] = In vitro stability in nonhuman primate blood and plasma; format: in vitro ADME; details: monkey, room temperature
# Experimental: Nonradioactive anticoagulated blood was obtained on the day of study from either human or nonhuman primates. Aliquots of ^11C-LY2428703 (about 150 kBq) were added to 0.5 mL of whole blood or 0.5 mL of plasma. Samples were incubated at room temperature for 30 min, after which either 450 μL of the radioactive plasma was added to 720 μL of acetonitrile or 200 μL of the radioactive whole blood was added to 300 μL of water. The tube containing the blood suspension was shaken well to mix and lyse the blood cells. Seven hundred and twenty microliters of acetonitrile was subsequently added and mixed well to precipitate the proteins, followed by 100 μL of water, which was again re-mixed. Radioactivity in the tubes was measured in a gamma counter and then centrifuged at 10,000×g for 1 min. The clear supernatant liquid was injected into the high-performance liquid chromatography (HPLC) column and the precipitate counted to calculate the recovery of radioactivity into the acetonitrile.
# The stability of the radioligand in whole blood or plasma was calculated as the ratio of the HPLC % composition of samples divided by the radiochemical purity of the radioligand.
smiles,measurement,setting,value
Cc1c(-c2ccc(O[11CH3])cc2)nsc1NC(=O)[C@@H]1C[C@H]1C [^11C-LY2428703],fp (plasma free fraction),[1],2.7^a %
same,fp (plasma free fraction),[2],0.094%
same,Brain peak SUV,[3],~0.5 SUV
same,Effective exposure (E × fp),[3],0.19
same,radiation-absorbed dose,[4]; heart wall,8.2 μSv/MBq
same,radiation-absorbed dose,[4]; liver,9.9 μSv/MBq
same,effective dose,[4]; monkey data extrapolated to humans,5.8 μSv/MBq
same,peak uptake in liver,"[4]; monkey, average peak",approximately 12 SUV
same,time of peak uptake in liver,"[4]; monkey, post-injection",about 5 min
same,radiation-absorbed dose,[4]; other organs,less than 7 μSv/MBq
same,radiation-absorbed dose,[4]; testes,13.7 μSv/MBq
same,substrate for P-gp,P-gp,not a substrate
same,fp (plasma free fraction),[5]; average of three baseline monkeys,0.884%
same,fp,[5]; monkey blocked with nonradioactive LY2428703: baseline,1.25 ± 0.12%
same,fp,"[5]; monkey, 2.5 min after blockade with nonradioactive LY2428703",1.12 ± 0.18%
same,fp,"[5]; monkey, 40 min after blockade with nonradioactive LY2428703",0.89 ± 0.14%
same,fp,"[5]; monkey, DCPQ blocking experiment: baseline",1.074%
same,fp,"[5]; monkey, after DCPQ blockade",1.100%
same,fp,"[5]; monkey, after elacridar blockade",0.912%
same,fp,"[5]; monkey, elacridar blocking experiment: baseline",0.456%
same,stability in whole blood and plasma,[6],completely stable
